According to patent US7432095B2, “Formate dehydrogenase tolerant to halogen compounds and process for producing the same” (Kaneka Corporation, priority 2001, dated 2008):
Like-named read-outs stand apart in the source and are kept apart here.

Legend:
Candida boidinii FDH = biological target: T1, Candida boidinii FDH (Candida boidinii, UniProt O13437); assay: biochemical
T1 sequence (O13437 1-364): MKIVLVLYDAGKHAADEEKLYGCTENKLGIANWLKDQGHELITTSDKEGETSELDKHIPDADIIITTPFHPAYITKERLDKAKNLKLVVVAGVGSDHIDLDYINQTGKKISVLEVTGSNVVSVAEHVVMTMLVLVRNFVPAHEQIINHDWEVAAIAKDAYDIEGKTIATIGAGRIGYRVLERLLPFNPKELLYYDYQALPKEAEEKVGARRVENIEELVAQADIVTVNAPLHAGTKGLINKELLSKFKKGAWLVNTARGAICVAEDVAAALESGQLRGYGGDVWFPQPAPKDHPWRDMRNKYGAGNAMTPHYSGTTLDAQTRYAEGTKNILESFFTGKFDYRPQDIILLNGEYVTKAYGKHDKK

[1] = test system: FDH derived from the KNK607 strain; assay: Haloketone tolerance: residual FDH activity of cell-free extract after standing with haloketone; assay type: biochemical; conditions: 30° C.
[2] = test system: KNK65MA FDH (formate dehydrogenase); assay: as above; assay type: biochemical, Thiobacillus sp. KNK65MA; conditions: 30° C.
[3] = Formate dehydrogenase activity assay (NADH formation, absorbance at 340 nm) of the purified enzyme; assay type: biochemical, Thiobacillus sp. KNK65MA; conditions: for Specific activity: 0.1 M phosphate buffer pH 7, 500 mM sodium formate, 5 mM NAD
Method: In the present invention, the formate dehydrogenase activity of the polypeptide is assayed by quantitating the increase in absorbance at 340 nm resulting from the production of NADH at 30° C. or 40° C. in a 0.1 M phosphate buffer (pH 7) containing 500 mM sodium formate and 5 mM NAD.
The molecular weight determination is by gel permeation chromatography. The Km value for formate is determined by measuring the activity under the above conditions of activity assay (30° C., NAD 5 mM) while the concentration of sodium formate is varied, and the Km value for NAD is determined under the above conditions of activity assay (30° C., sodium formate 500 mM) while the concentration of NAD is varied. […]
The activity of the formate dehydrogenase obtained was assayed by quantitating the increase in absorbance at 340 nm resulting from formation of NADH in 0.1 M phosphate buffer (pH 7) containing 500 mM sodium formate and 5 mM NAD at 30° C. or 40° C. In this connection, the amount of the enzyme yielding […] of NADH in 1 minute was defined as 1 unit. Protein assay was performed by the method of Lowry using BSA as standard protein. The specific activity of the purified formate dehydrogenase was 7.6 u/mg protein (30° C.) or 13.3 μ/mg protein (40° C.)
The Km values for formate and NAD were determined as follows. Thus, the Km value for formate was determined by measuring the activity with the concentration of sodium formate varied under the above specific activity assay conditions (30° C., NAD 5 mM) and the Km value for NAD was determined by measuring the activity with the concentration of NAD varied under the above specific activity assay conditions (30° C., sodium formate 500 mM). In FIG. 3 and FIG. 4, V represents the reaction velocity of the enzyme, S represents the concentration of the substrate, and the intercept of the abscissa represents −1/Km. […]

[4] = test system: ethyl 4-chloroacetoacetate reduction system (NAD regeneration); assay: Coenzyme regeneration in the enzymatic reduction system of ethyl 4-chloroacetoacetate; assay type: biochemical; conditions: 6 g ethyl 4-chloroacetoacetate in 60 ml, butyl acetate/water, pH 6.5, 30° C., 3.5 hours, reductase from HB101 (pNTS1M1)
Method: Escherichia coli HB101 (pFT002) expressing the KNK65MA-derived FDH as acquired in Example 7 and Escherichia coli HB101 (pFA002) expressing KNK607-derived FDH (WO 02/46427) were respectively inoculated into 60 ml of the liquid medium shown in Table 5 sterilized in a 500 ml Sakaguchi flask and shake-cultured at 37° C. for 9 hours. The resulting culture medium was inoculated into 100 ml of the liquid medium shown in Table 5 sterilized in a 500 ml Sakaguchi flask in size of 1% and shake-cultured at 37° C. for 46 hours. The resulting culture medium was centrifugally concentrated 5-fold and sonicated to give an FDH enzyme solution. On the other hand, for use as the reductase enzyme for reducing a 4-haloacetoacetate, the recombinant Escherichia coli HB101 (pNTS1M1)(FERM BP-8059) was inoculated into 100 ml of the medium shown in Table 5 sterilized in a 500 ml Sakaguchi flask, shake-cultured at 37° C. for 23 hours, and concentrated 10-fold and the cells were disrupted. […] After completion of the reaction, the reaction mixture was extracted with butyl acetate and the extract was analyzed. […]
The quantitation of ethyl 4-chloro-3-hydroxybutyrate was carried out by gas chromatography. […]

[5] = Candida boidinii FDH extract, haloketone 20 mM added 1:1, 30° C., 5 hours, untreated extract = 100%, read-out: Residual FDH activity (%)
[6] = KNK607 FDH extract, haloketone 20 mM added 1:1, 5 hours, untreated extract = 100%
[7] = KNK65MA FDH extract, haloketone 20 mM added 1:1, 5 hours, untreated extract = 100%
[8] = […], haloketone 20 mM added 1:1, 30° C., 5 hours, […], read-out: Residual FDH activity (%)
[9] = […], haloketone 20 mM added 1:1, 5 hours, […]
[10] = […], haloketone 20 mM added 1:1, 28.5 hours, […]

## CCOC(=O)CC(=O)CI [Ethyl4-iodoacetoacetate, ethyl 4-iodoacetoacetate]
Candida boidinii FDH; [5]
  remaining activity at 20000 µM: 0%
[1]; [6]
  Residual FDH activity (%): 0.0%
[2]; [7]
  Residual FDH activity (%): 12.1%

## CCOC(=O)C(Cl)C(C)=O (centres unmarked) [Ethyl2-chloroacetoacetate, ethyl 2-chloroacetoacetate]
Candida boidinii FDH; [8]
  remaining activity at 20000 µM: 5.4%
[1]; [9]
  Residual FDH activity (%): 2.5%
[2]; [9]
  Residual FDH activity (%): 100.0%

## chloroacetone
Candida boidinii FDH; 30° C., 5 hours
  Residual FDH activity (%): 38.2%
[1]; 5 hours
  Residual FDH activity (%): 46.2%
[2]; 5 hours
  Residual FDH activity (%): 100.0%

## O=C(CCl)COC(=O)c1ccccc1 [1-(Benzoyloxy)-3-chloro-2-propanone, 1-(benzoyloxy)-3-chloro-2-propanone]
Candida boidinii FDH; Candida boidinii FDH extract, haloketone 10 mM added 1:1, 30° C., 5 hours, untreated extract = 100%, read-out: Residual FDH activity (%)
  remaining activity at 10000 µM: 4.5%
[1]; KNK607 FDH extract, haloketone 10 mM added 1:1, 5 hours, untreated extract = 100%
  Residual FDH activity (%): 1.6%
[2]; KNK65MA FDH extract, haloketone 10 mM added 1:1, 5 hours, untreated extract = 100%
  Residual FDH activity (%): 100.7%

## O=C(CCl)c1cccnc1 [2-Chloro-1-(3-pyridinyl)ethanone, 2-chloro-1-(3-pyridinyl)ethanone]
Candida boidinii FDH; [8]
  remaining activity at 20000 µM: 1.5%
[1]; [9]
  Residual FDH activity (%): 6.1%
[2]; [9]
  Residual FDH activity (%): 90.1%

## O=C(CO)CCl [1-Chloro-3-hydroxy-2-propanone, 1-chloro-3-hydroxy-2-propanone]
Candida boidinii FDH; [5]
  remaining activity at 20000 µM: 14.7%
[1]; [6]
  Residual FDH activity (%): 11.7%
[2]; [7]
  Residual FDH activity (%): 80.1%

## CC(C)(C)OC(=O)N[C@@H](Cc1ccccc1)C(=O)CCl [1,1-dimethylethyl [(1S)-3-chloro-2-oxo-1-(phenylmethyl)propyl]carbamate]
Candida boidinii FDH; Candida boidinii FDH extract, haloketone 2 mM added 1:1, 30° C., 5 hours, untreated extract = 100%, read-out: Residual FDH activity (%)
  remaining activity at 2000 µM: 31.3%
[1]; KNK607 FDH extract, haloketone 2 mM added 1:1, 5 hours, untreated extract = 100%
  Residual FDH activity (%): 81.6%
[2]; KNK65MA FDH extract, haloketone 2 mM added 1:1, 5 hours, untreated extract = 100%
  Residual FDH activity (%): 100.0%

## COC(=O)CC(=O)CCl [Methyl4-chloroacetoacetate, methyl 4-chloroacetoacetate]
Candida boidinii FDH; [8]
  remaining activity at 20000 µM: 14.9%
[1]; [9]
  Residual FDH activity (%): 13.1%
[2]; [9]
  Residual FDH activity (%): 100.0%

## O=C(CCl)c1cccc(Cl)c1 [2,3′-Dichloroacetophenone, 2,3′-dichloroacetophenone]
Candida boidinii FDH; [8]
  remaining activity at 20000 µM: 7.4%
[1]; [9]
  Residual FDH activity (%): 27.0%
[2]; [9]
  Residual FDH activity (%): 97.9%

## O=C(CCl)c1ccccc1 [2-Chloroacetophenone, 2-chloroacetophenone]
Candida boidinii FDH; 28.5 h, read-out: Residual FDH activity (%)
  remaining activity at 20000 µM: 29.4%
[1]; [10]
  Residual FDH activity (%): 100.0%
[2]; [10]
  Residual FDH activity (%): 100.7%

## CCOC(=O)CC(=O)CBr [Ethyl4-bromoacetoacetate, ethyl 4-bromoacetoacetate]
Candida boidinii FDH; [5]
  remaining activity at 20000 µM: 0%
[1]; [6]
  Residual FDH activity (%): 0.0%
[2]; [7]
  Residual FDH activity (%): 24.1%

## CCOC(=O)CC(=O)CCl [Ethyl4-chloroacetoacetate, ethyl 4-chloroacetoacetate]
Candida boidinii FDH; [8]
  remaining activity at 20000 µM: 14.3%
[1]; [9]
  Residual FDH activity (%): 20.1%
[2]; [9]
  Residual FDH activity (%): 100.7%

B1: FDH derived from KNK65MA: Haloketone-tolerant NAD-dependent formate dehydrogenase from Thiobacillus sp. KNK65MA, amino acid sequence SEQ ID NO:1 (protein, listed as Thiobacillus sp.)
chain: MAKILCVLYDDPVDGYPKTYARDDLPKIDHYPGGQTLPTPKAIDFTPGQLLGSVSGELGLRKYLEANGHTFVVTSDKDGPDSVFEKELVDADVVISQPFWPAYLTPERIAKAKNLKLALTAGIGSDHVDLQSAIDRGITVAEVTYCNSISVAEHVVMMILGLVRNYIPSHDWARKGGWNIADCVEHSYDLEGMTVGSVAAGRIGLAVLRRLAPFDVKLHYTDRHRLPEAVEKELGLVWHDTREDMYPHCDVVTLNVPLHPETEHMINDETLKLFKRGAYIVNTARGKLADRDAIVRAIESGQLAGYAGDVWFPQPAPKDHPWRTMKWEGMTPHISGTSLSAQARYAAGTREILECFFEGRPIRDEYLIVQGGALAGTGAHSYSKGNATGGSEEAAKFKKAG
[3]; 30° C., NAD 5 mM, sodium formate varied, read-out: Km value for formate
  Km: 1600 µM
[3]; 30° C., sodium formate 500 mM, NAD varied, read-out: Km value for NAD
  Km: 48 µM
[3]; 30° C.
  Specific activity: 7.6 u/mg protein
[3]; 40° C.
  Specific activity: 13.3 μ/mg protein
[4]
  Conversion rate to ethyl 4-chloro-3-hydroxybutyrate: 100%
